Experimental data as given in patent US10098895B2, “Treatment of symptoms related to neurodegenerative disorders through pharmacological dermal activation of cranial nerves” (GLIA, LLC, priority 2016, dated 2018).
“Also recorded” adds a separate entry of the source.

Columns and labels:
essential tremor = test: Example 7: essential tremor subject with contact lens discomfort; type: in vivo, human
Description: A person developed persistent right hand tremors of a kinetic (non-resting) type that has been continuous over the past 6 years. […] This condition had not worsened over time. […] Initially, their doctor thought that these symptoms were stress related and they have been taking 2.5 mg of escitalopram for over 6 years. […] The subject was not on hormone replacement therapy or any other medication.
Concomitantly, the subject suffered from uncomfortable eyes, with a sticky burning sensation and development of blurred vision after about 5-6 hours of contact lens wear. For the past 3 years, the subject was administered 1% progesterone gel (1 mg per day) by dermal application to the forehead once per night. The progesterone gel prolonged comfortable contact lens wear time with sustained visual acuity from 5-6 hours to greater than 15 hours. […] After 2 years of treatment, the benefits of progesterone dermal application persisted for at least 3 days without treatment. There was no effect of the progesterone on their tremor symptoms.
After allowing for washout of progesterone for 3 days, they began forehead application of 0.5-0.75 mg dronabinol once daily at night.
The dronabinol administration regimen was altered by dividing equally the once daily dose of 0.5-0.75 mg dronabinol between the conchae of the left ear, the conchae of the right ear, and the forehead. […] Comfortable contact lens wear, with ease of insertion and removal, and visual acuity extends for 15 hours or more after dronabinol application.
Contact lens comfort wear duration was greater than 15 hours.
In April 2017, the subject, while still being treated with 1% progesterone applied to the forehead, instituted a once-daily low dose topical testosterone applied to the forehead and ear conchae to determine if doing so would produce a beneficial impact on further tremor reduction and in particular essential tremor triggered by caffeine consumption. […] They stopped the treatment to assess whether the tremor would return to pre-testosterone treatment levels. As of August 2017, the subject is without noticeable tremor. The caffeine trigger for tremor onset, which had been recognized throughout all treatments, has not re-appeared since the completion of the 4-week testosterone treatment. The subject continues on low-dose progesterone 1% applied daily to the forehead as the only treatment.

[1] = test system: herpes ophthalmicus and herpes keratitis; test: Example 8: herpes ophthalmicus and herpes keratitis patient; type: in vivo, human; conditions: dronabinol 0.5 mg twice daily to both ears
From the text: A patient experienced an episode of herpes ophthalmicus and herpes keratitis in September 2003, resulting in thinning melt of the left cornea, loss of vision, inflammation, neuralgia, and a rash of blisters to the left forehead, upper nose, and temple with a subsequent full left-face palsy droop, which required multiple cosmetic surgical procedures to provide some symmetry to the face and partial closure to the eyelids of the left eye.
No corneal graft to the left eye could be attempted due to recurrent thinning of the full cornea and inflammation of the vasculature. The patient was treated with ophthalmic prednisolone, topical and systemic antivirals, topical antibiotics, bandage lens, punctal plugs, and over-the-counter artificial tears and gels. This treatment regimen was continued until January 2011 when the cornea thinned to probable melt-through, necessitating corneal patch surgery. Just prior to the surgery, the patient's vision was measured at 20/2000, or finger vision.
The patient started applying 1% progesterone to their forehead twice daily just before corneal patch surgery planned for January 2011. The dose of progesterone was approximately 1 mg per application.
In September 2014, corneal tissue had sufficiently epithelialized at the perimeter to attempt a corneal graft, which was successfully completed. Progesterone 1% was applied daily to the forehead post-surgery. Within 9 months vision was restored to best correct vision pinhole 20/50.
In February 2015, the patient's visual acuity decreased as a result of the rejection of cells at the lower part of the graft. Moderate central staining continued to persist in a band where eyelids could not close. Intraocular pressure (TOP) in the left eye rose to 22 mmHg. The patient was placed on a treatment regimen that included Prednisolone Forte 6× plus Restasis for rejection 2× daily and oral valacycovir, together with mechanically taping the eyelid closed at night.
In May 2016, the patient initiated a course of twice daily dronabinol treatment, 0.5 mg each dose, to both ears. Through July, stabilization was achieved, and all other medications were discontinued. […] Visual acuity improved to 20/40.

[2] = test system: Parkinson's disease symptoms; test: Example 1: Parkinson's disease patient, dermal application to forehead and ear conchae
Description: A person was diagnosed with the early stages of Parkinson's disease in December of 2014. Their symptoms included tremors in the hands, impaired short term memory, slow and uncontrolled rigid movements while walking and eating, and declining ocular blink function. The patient also had dry eyes with hyper-tearing, burning, and itching.
The patient was also treated with progesterone 1% on the forehead initially once daily beginning in March 2015. […] The progesterone was applied as needed for about a year.
Instead of the prescribed regimen, the patient began dermal application of dronabinol 1.25 mg 2 times daily to three sites: (i) the forehead, (ii) the concha of the left ear, and (iii) the concha of the right ear. Each dose of 1.25 mg was divided equally between the three application sites. This treatment regimen began Friday Jun. 10, 2016 concurrent with the discontinuation of rasagiline.
In February 2017, the patient, who suffers from debilitating moderate spinal stenosis, started taking Azilect (rasagiline) and carbidopa-levodopa to improve their walking and flexibility. […] The patient decided that, together with the prescribed medications, they would switch from dronabinol to topical testosterone gel applied to the forehead and ear conchae to see if this would impact their longstanding low testosterone levels.
In March 2017, topical testosterone gel application was instituted as an adjunct to is the prescribed Azilect and carbidopa-levodopa.
The patient voluntarily stopped topical testosterone for 3 weeks in June 2017. […] At the end of 3 weeks, topical testosterone was re-instituted as an adjunct to the prescribed medications.

herpes facial palsy = test: Example 9: functional facial motor control in herpes facial palsy; type: in vivo, human
From the text: A person had unilateral facial unilateral palsy stemming from 2003 herpes ophthalmicus and herpes keratitis. The left eye lids were unable to close to cover the central cornea without a forceful blink; neither were the lids able to open with the upper lid sagging and without elasticity or muscle control. This static condition was the baseline since the end of 2003 to May 2016, or nearly 13 years.
The left side of the face drooped, the left corner of the mouth drooled, and a noticeable asymmetry presented at rest. The upper lip could only slightly reveal the lowest pat of the upper teeth on the right side. There was minimal functional motor control of facial expression including upper lip. left side brow, eye lids, cheeks to mouth and chin lacked elasticity and functional motor control, leaving face fixed, expressionless, and asymmetrical.
The facial skin sagged as did the eye lids. […] His upper lip was partially frozen on the left side, and drooling was persistent. Lip and mouth expression as in smile was severely restricted.
Beginning in mid-May 2016, the patient began treatment twice daily with dronabinol 2.5 mg in oil, one-third of which was applied equally to the concha of the left ear, to the conchae of the right ear, and to the forehead.

[3] = dronabinol 1.25 mg 2 times daily, forehead and both conchae, two weeks, no other medications
[4] = dronabinol 2.5 mg in oil twice daily divided between both conchae and forehead, 3 months

Q: How did the “comfortable contact lens wear duration” value (essential tremor; 0.5-0.75 mg dronabinol once daily divided between both conchae and forehead) turn out when CCCCCc1cc(O)c2c(c1)OC(C)(C)[C@@H]1CCC(C)=C[C@@H]21 [dronabinol, (6aR,10aR)-6a,7,8,10a-tetrahydro-6,6,9-trimethyl-3-pentyl-6H-dibenzo[b,d]-pyran-1-ol] was run?
A: The value was ≥ 15 h.

Q: And the hand tremor (essential tremor; 0.5-0.75 mg dronabinol once daily divided between both conchae and forehead, by the fourth day)?
A: The hand tremor was “hand tremor had noticeably reduced”.

Q: What about the hand tremor (essential tremor; 0.5-0.75 mg dronabinol once daily to forehead only, 2 weeks) of the same compound?
A: The hand tremor was “without impacting their symptoms of hand tremor”.

Q: And the “reduction of essential tremor from pre-treatment levels, stable new baseline” value (essential tremor; after discontinuing dronabinol)?
A: Its value is “about 50%”.

Q: And the ocular discomfort (essential tremor; dronabinol USP 0.5 mg to 0.75 mg in an oil formulation to the forehead, substituted for progesterone)?
A: Its ocular discomfort is “the same benefits to ocular discomfort was obtained”.

Q: What about the “tremor amplitude after ceasing treatment” value (essential tremor; dronabinol ceased for 3 days, right hand) of the same compound?
A: Its value is “about 50 % of pre-treatment level”.

Q: And the “reduction in essential tremor from pre-treatment baseline” value (essential tremor; during dronabinol treatment)?
A: Its value is 80%.

Q: What about the appetite (essential tremor; low dose topical dronabinol) of the same compound?
A: Its appetite is “unwanted increase in appetite”.

Q: And the corneal staining ([1]; May through July 2016)?
A: The corneal staining was “improve somewhat, but still moderate”.

Q: What about the graft rejected cells ([1]; May through July 2016) of the same compound?
A: Its graft rejected cells is “the number of rejected cells became fewer”.

Q: What about the visual acuity ([1]; May through July 2016) of the same compound?
A: The visual acuity was 20/40.

Q: And the “intraocular pressure (printed TOP)” value ([1]; May through July 2016, from 22 mmHg)?
A: Its value is 16 mmHg.

Q: And the “best corrected vision pinhole” value ([1]; beginning of August)?
A: The value was 20/25.

Q: What about the blink interval ([1]; beginning of August) of the same compound?
A: The blink interval was “approximately 24 second”.

Q: And the corneal staining ([1]; beginning of August)?
A: Its corneal staining is “staining improved to superficial”.

Q: What about the “intraocular pressure (printed TOP) in both eyes” value ([1]; beginning of August) of the same compound?
A: Its value is 18.

Q: And the rejection cells ([1]; beginning of August)?
A: Its rejection cells is “no sign of rejection cells”.

Q: And the “Keratograph 5M non-invasive tear film break times (NIKBUTs) level” value ([1]; beginning of August, 0 = best)?
A: The value was 0.

Q: What about the stability of improvement ([2]; 3 months of dronabinol to conchae and forehead as sole Parkinson's medication) of the same compound?
A: The stability of improvement was “stable at the improved level”.

Q: What about the “speech, thought and social interaction” value ([2]; dronabinol 1.25 mg 2 times daily divided between forehead and concha of both ears, within three days, washing out of rasagiline) of the same compound?
A: The value was “more fluid speech, less searching for words, fewer thought gaps”.

Q: And the bodily rigidity [2, 3]?
A: The bodily rigidity was “significantly less bodily rigidity”.

Q: What about the depression [2, 3] of the same compound?
A: The depression was “depression resolved in the absence of antidepressants”.

Q: And the facial masking [2, 3]?
A: The facial masking was “decreased facial masking and more voluntary facial expressions; also recorded: decrease in facial masking”.

Q: What about the hand tremors [2, 3] of the same compound?
A: The hand tremors was “markedly reduced hand tremors”.

Q: And the memory function [2, 3]?
A: The memory function was “much improved memory function”.

Q: What about the “motor skills and coordination” value [2, 3] of the same compound?
A: The value was “motor skills and coordination improved”.

Q: And the “postnasal drip, chest cough and asthmatic wheezing” value [2, 3]?
A: The value was “persistent postnasal drip resolved, chest cough and asthmatic wheezing resolved”.

Q: And the dry eyes ([2]; dronabinol 1.25 mg 2 times daily, forehead and both conchae, within three days)?
A: Its dry eyes is “dry eyes resolved with no need for artificial tears”.

Q: And the “improvement of Parkinson's disease symptoms (motor, cognitive, emotional), reported by wife” value ([2]; dronabinol since Jun. 10, 2016 as sole medication, reported Jul. 27, 2016)?
A: Its value is 90%.

Q: What about the “cognitive function and other non-motor symptoms during tapering-off” value ([2]; tapering-off of dronabinol, already on Azilect and carbidopa-levodopa) of the same compound?
A: The value was “rapidly deteriorated”.

Q: What about the adverse events ([2]; throughout low dose neural cranial treatment) of the same compound?
A: Its adverse events is “no adverse events were noted”.

Q: And the “facial droop and drool” value (herpes facial palsy; 3 months of dronabinol application to the ear conchae)?
A: The value was “droop ad drool significantly resolved”.

Q: What about the “recurrence of facial palsy” value (herpes facial palsy; after dronabinol was discontinued in August 2016) of the same compound?
A: The value was “no recurrence of facial palsy”.

Q: And the “best corrected vision with pinhole” value (herpes facial palsy; [4])?
A: Its value is 20/25.

Q: And the conjunctival redness (herpes facial palsy; [4])?
A: Its conjunctival redness is “improved significantly”.

Q: What about the “control over facial expression muscles” value (herpes facial palsy; [4]) of the same compound?
A: The value was “regained control over facial expression muscles”.

Q: What about the early graft rejection (herpes facial palsy; [4]) of the same compound?
A: The early graft rejection was “reversed”.

Q: What about the “eye lid motor control” value (herpes facial palsy; [4]) of the same compound?
A: Its value is “more motor control over both eye lids”.

Q: What about the “persistent central corneal staining” value (herpes facial palsy; [4]) of the same compound?
A: The value was “resolved to a significant degree”.

Q: And the “tear film breakup time level by Keratograph 5M” value (herpes facial palsy; dronabinol 2.5 mg in oil twice daily divided between both conchae and forehead, 3 months, 0 = best)?
A: Its value is 0.
